Consider 15 compounds from ChEMBL document CHEMBL4177748, “Synthesis, structure-activity relationships, and mechanistic studies of 5-arylazo-tropolone derivatives as novel xanthine oxidase (XO) inhibitors” (Bioorg Med Chem, 2018).

In the first test the target is Xanthine dehydrogenase/oxidase (Bos taurus, UniProt P80457). In words: Inhibition of bovine milk xanthine oxidase using xanthine as substrate pretreated for 15 mins followed by substrate addition measured after 8 mins.
Chain of Xanthine dehydrogenase/oxidase (P80457 whole entry): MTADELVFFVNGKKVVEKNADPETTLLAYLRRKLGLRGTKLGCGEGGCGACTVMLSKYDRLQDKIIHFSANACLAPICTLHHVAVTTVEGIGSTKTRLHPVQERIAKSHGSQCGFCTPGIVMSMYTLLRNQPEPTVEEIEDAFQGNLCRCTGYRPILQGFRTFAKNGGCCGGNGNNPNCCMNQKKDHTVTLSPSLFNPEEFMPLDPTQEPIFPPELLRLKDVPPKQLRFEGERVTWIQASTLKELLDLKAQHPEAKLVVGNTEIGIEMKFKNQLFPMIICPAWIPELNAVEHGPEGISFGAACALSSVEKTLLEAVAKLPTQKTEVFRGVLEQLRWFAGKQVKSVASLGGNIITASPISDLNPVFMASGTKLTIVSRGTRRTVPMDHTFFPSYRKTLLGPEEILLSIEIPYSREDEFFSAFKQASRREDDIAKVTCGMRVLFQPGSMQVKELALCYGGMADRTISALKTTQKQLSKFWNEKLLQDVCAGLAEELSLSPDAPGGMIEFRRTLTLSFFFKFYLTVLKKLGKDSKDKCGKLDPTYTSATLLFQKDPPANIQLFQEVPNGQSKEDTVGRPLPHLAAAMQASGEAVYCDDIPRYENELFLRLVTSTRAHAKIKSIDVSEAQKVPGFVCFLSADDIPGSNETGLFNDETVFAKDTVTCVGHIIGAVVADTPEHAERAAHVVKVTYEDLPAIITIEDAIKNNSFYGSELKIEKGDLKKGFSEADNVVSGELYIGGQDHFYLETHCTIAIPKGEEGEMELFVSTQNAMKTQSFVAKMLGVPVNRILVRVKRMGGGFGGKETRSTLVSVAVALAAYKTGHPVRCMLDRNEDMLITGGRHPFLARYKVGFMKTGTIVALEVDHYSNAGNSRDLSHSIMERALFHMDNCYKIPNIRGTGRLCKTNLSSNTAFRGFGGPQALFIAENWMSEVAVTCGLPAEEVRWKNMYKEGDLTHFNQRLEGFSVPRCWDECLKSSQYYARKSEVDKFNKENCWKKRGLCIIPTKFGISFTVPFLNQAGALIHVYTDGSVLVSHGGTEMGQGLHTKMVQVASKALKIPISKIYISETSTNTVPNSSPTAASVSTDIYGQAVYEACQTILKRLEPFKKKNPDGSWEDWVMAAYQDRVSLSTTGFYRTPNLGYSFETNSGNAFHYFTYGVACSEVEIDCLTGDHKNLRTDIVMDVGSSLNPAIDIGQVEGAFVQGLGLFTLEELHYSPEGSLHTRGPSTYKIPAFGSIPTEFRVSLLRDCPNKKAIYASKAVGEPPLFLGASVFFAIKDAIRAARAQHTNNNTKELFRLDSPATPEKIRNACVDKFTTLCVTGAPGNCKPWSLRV
Conditions: not given; call rule not given here
By IC50 is commonly meant the concentration needed to halve the response being measured. Turning to `COc1ccc(/N=N/c2cc(C(F)(F)F)cc(C(F)(F)F)c2)ccc1=O`, the concentration for half-maximal inhibition (IC50) result was “Not Active”.
On to `O=c1ccc(/N=N/c2cccc(Br)c2)ccc1O`, for which the IC50 entry is recorded as “Not Active”.
Take `Cc1ccc(Br)cc1/N=N/c1ccc(O)c(=O)cc1`: the half-maximal inhibitory concentration (IC50) entry is given as “Not Active”.
On the same count and under the same terms, the entry for `Cc1cc(C)cc(/N=N/c2ccc(O)c(=O)cc2)c1` is “Not Active”.
Turning to `Cc1cccc(/N=N/c2ccc(O)c(=O)cc2)c1`, the 50% inhibitory concentration (IC50) result is listed as “Not Active”.
The same measure, in the same setting: then `O=c1ccc(/N=N/c2ccc(F)cc2)ccc1O`, with “Not Active”; and `CCOC(=O)c1ccc(/N=N/c2ccc(O)c(=O)cc2)cc1`, with “Not Active”.
As for `O=c1ccc(/N=N/c2cccc(I)c2)ccc1O`, the IC50 result was “Not Active”.

Staying with this test, now noted: read-out: IC50.
With `COc1cccc(/N=N/c2ccc(O)c(=O)cc2)c1`, the IC50 came out at 45 µM.
Turning to `COC(=O)c1cccc(/N=N/c2ccc(O)c(=O)cc2)c1`, the half-inhibitory concentration (IC50) was 80 µM.
In the case of `COc1cc(/N=N/c2ccc(O)c(=O)cc2)cc(OC)c1OC`, the IC50 turned out to be 57 µM.
`O=c1ccc(/N=N/c2cccc(Cl)c2)ccc1O`: the IC50 was found to be 17 µM.
On to `Cc1c(/N=N/c2ccc(O)c(=O)cc2)cccc1[N+](=O)[O-]`, for which the IC50 stood at 23 µM.
For the compound `O=c1ccc(/N=N/c2cccc(F)c2)ccc1O`, the 50% inhibitory concentration (IC50) worked out at 8.9 µM.
As to `O=c1ccc(/N=N/c2cccc(C(F)(F)F)c2)ccc1O`, the half-inhibitory concentration (IC50) is 7.4 µM.
